# Where two headings read alike, the source gives them in different places.
# Tests used:
# [1] = system: platelets of C57BL/6J mice; experiment: In vivo mouse platelet experiments; conditions: co-administration: ABT-263 25 mg/kg + EO 100 mg/kg then 50 mg/kg 3 hrs later, oral gavage, 24 hours
# Description: Wild type black mice strain C57BL/6J were treated with vehicle, ABT-263 (25 mg/kg, single dose), EO (100 mg/kg, then 3 hrs later 50 mg/kg), or a combination of ABT-263 and EO. EO was formulated in dH2O, and ABT-263 was formulated in 10% ethanol, 30% polyethylene glycol 400, and 60% Phosal 50 PG. Both ABT-263 and EO were administered by oral gavage. Blood samples were collected by submandibular bleed before treatment and 24 hours following treatment, and CBC was acquired. Percentage platelet protection was calculated as follows: % Platelet Protection = (100)(Px - mPABT)/(mPv - mPABT) where Px is the platelet count for a given mouse, mPv is the mean vehicle treated platelet count, and mPABT is the mean ABT-263 treated platelet count. Statistical analysis was performed using one-way ANOVA with select multiple comparisons as shown.
# Finally, whether EO can rescue thrombocytopenia induced by the activity of navitoclax was evaluated in mice. The use of navitoclax is limited by on-target toxicity triggering BAK/BAX-mediated platelet apoptosis (Zhang, H. et al. Cell Death Differ 14, 943-951 (2007)). […] This EO effect is distinct from its capacity to stimulate platelet production by differentiation of the megakaryocyte precursors and progenitor cells, which requires 5 days to begin (Erickson-Miller, C. L. et al. Stem Cells 27, 424-430 (2009); Jenkins, J. M. et al. Blood 109, 4739-4741 (2007)).
# BAX-/-MEFs = experiment: Caspase 3/7 assay, STS-induced apoptosis, MEFs expressing only BAK; format: cell-based, mouse; conditions: 3 µM STS, 6 hr
# Source text: (§1) FIGS. 7A, 7B, 7C, 7D, 7E, and 7F are a set of diagrams showing that eltrombopag inhibits BAX translocation and BAX-mediated apoptosis in cells. […] BAX translocation is based on antibody-based detection of BAX and mitochondrial protein TOMM20. Representative confocal micrographs from three independent biological experiments. Scale bar, 20 µm. […] Data represent ±SEM of three independent biological replicates. Two-sided t test, ****P < 0.0001; ***P < 0.001; **P < 0.01; *P < 0.05; ns, P > 0.05. […] Actin and VDAC are loading controls for cytosolic and mitochondrial fractions, respectively. FIGS. 7D and 7E show a caspase 3/7 assay of BAK-/- mouse embryonic fibroblasts (MEFs) (FIG. 7D) and BAX-/-MEFs (FIG. 7E) in response to 3 µM STS and the presence or absence of various doses of EO for 6 hr. […]
# (§2) It is important to note that THPO-receptor agonist activity of EO is highly specific to the human and chimpanzee THPO-receptors, making mouse cell lines ideal for studying EO modulation of BAX-dependent activity independent of THPO-mediated effects (Erickson-Miller, C. L. et al. Stem Cells 27, 424-430 (2009)). First, mitochondrial cytochrome c release, a hallmark of BAX activation and BAX-dependent apoptosis, was evaluated. […] Next, mitochondrial translocation of cytosolic BAX upon treatment with either BIM BH3 or staurosporine (STS) in BAK KO MEFs was evaluated.
# [2] = system: human IPSC cardiomyocytes; experiment: Apoptosis detection (RealTime Glo) in doxorubicin-treated cardiomyocytes; format: cell-based; conditions: 5 µM Doxorubicin, 10 µM EO
# BAK KO MEFs = experiment: Mitochondrial translocation of cytosolic BAX in cells; format: cell-based, mouse; conditions: BIM BH3 or 2 µM staurosporine (STS); 10 or 20 µM EO
# Source text: as §1, §2
# BAX = target: T1, BAX (Homo sapiens, UniProt Q07812); experiment: Liposomal translocation assay with NBD-labeled BAX; format: biochemical; conditions: for IC50: NBD-labeled BAX 800 nM, 120 minutes
# T1 construct: Human full-length (1-192) wild-type BAX (Q07812); made in house; host or cells: E. coli BL21 (DE3) CodonPlus (DE3)-RIPL
# T1 sequence (Q07812 whole entry): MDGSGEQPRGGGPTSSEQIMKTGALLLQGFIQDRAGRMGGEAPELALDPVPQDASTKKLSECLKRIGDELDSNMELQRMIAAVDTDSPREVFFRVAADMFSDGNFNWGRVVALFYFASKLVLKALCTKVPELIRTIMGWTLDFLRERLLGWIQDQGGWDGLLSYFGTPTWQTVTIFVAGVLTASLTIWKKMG
# Description: Lipids (Avanti Polar Lipids) at the following ratio, phosphatidylcholine 48%, phosphatidylinositol 10%, dioleoyl phosphatidylserine 10%, phosphatidylethanolamine, 28%, and tetraoleoyl cardiolipin 4%, were mixed in a total of 1 mg, dried and resuspended in 10 mM HEPES, pH 7, 200 mM KCl, and 5 mM MgCl2. The resulting slurry was vortexed for 10 minutes and sonicated in a sonicating water bath for 10 minutes. Liposomes were formed by extrusion of the suspension using Avanti Mini-Extruder with polycarbonate membranes of 0.1 µm pore size (Avanti Polar Lipids) followed by passage through a CL2B Sepharose column (GE Healthcare). Recombinant wild type BAX was labeled at cysteine by overnight incubation at 4° C. with 10 equivalents of iodoamino-NBD (IANBD, Thermo Fisher) and 3 equivalents of TCEP to maintain reduced cysteine. Labeled BAX (BAX-NBD) was separated from unreacted IANBD by gel filtration (Econo-Pac 10 DG desalting column, BioRad) and used immediately. […] Upon BAX-NBD translocation, the NBD fluorophore was excluded from bulk water through contact with the liposomal membrane leading to an increase in fluorescence intensity. Fluorescence (λex = 475 nm and λem = 530 nm) was measured at 1-minute intervals at 37° C. indicated using a Tecan Infinite M1000 plate reader. The percentage translocation at any given time point was calculated as percentage translocation=[((F-F0)/(F100-F0))(100)]-[((FS-FS0)/(FS100-FS0))(100)] where F0 and F100 are baseline and maximal fluorescence, respectively and FS, FS0, and FS100 are the current fluorescence, baseline fluorescence, maximal fluorescence of solution BAX incubated in the absence of liposomes. The subtraction of the percent translocation of solution BAX is required to correct for NBD fluorescence bleaching that occurs throughout the reaction. […]
# Prior to permeabilizing membranes, activated BAX must first translocate to the membrane (Lovell, J. F. et al. Cell 135, 1074-1084, (2008)). To explore this earlier step in BAX activation, an NBD-fluorescence-based translocation assay was used. […]
smiles,measurement,setting,value
"CC1=NN(c2ccc(C)c(C)c2)C(=O)/C1=N\Nc1cccc(-c2cccc(C(=O)O)c2)c1O [EO, eltrombopag]",navitoclax-induced platelet loss,[1],markedly inhibited platelet loss to acceptable levels
same,STS-induced apoptosis mediated by caspase 3/7 activity,BAX-/-MEFs,no effect
same,apoptosis (cell death) induced by doxorubicin,[2],capable of inhibiting apoptosis
same,mitochondrial translocation of cytosolic BAX,BAK KO MEFs,capable of inhibiting BAX translocation
same,IC50,"BAX; BIM BH3 1 µM, read-out: BIM IC50, inhibition of BAX translocation",5.7 µM
same,IC50,"BAX; tBID 200 nM, read-out: tBID IC50, inhibition of BAX translocation",6.3 µM
same,heat-induced auto-translocation of BAX,"BAX; heat-induced, no BH3 activator",capable of inhibiting heat-induced auto-translocation of BAX

# Reference: patent US20230270721A1, “INHIBITION OF BAX-MEDIATED CELL DEATH BY ELTROMBOPAG” (Albert Einstein College of Medicine, priority 2020, published 2023)
